Laboratory results taken from patent US6420129B1, “Reagent composition for determination of electrolytes” (Toyo Boseki Kabushiki Kaisha, priority 1998, dated 2002).

Key:
[1] = target: T1, Inactive α-amylase (from swine pancreas) (Sus scrofa, UniProt P00690); assay: Relative sensitivity in determination of calcium with 10 mg/dl calcium standard solution; assay type: biochemical
T1 construct: α-amylase derived from the swine pancreas; from tissue; host or cells: swine pancreas
T1 sequence (P00690 16-511): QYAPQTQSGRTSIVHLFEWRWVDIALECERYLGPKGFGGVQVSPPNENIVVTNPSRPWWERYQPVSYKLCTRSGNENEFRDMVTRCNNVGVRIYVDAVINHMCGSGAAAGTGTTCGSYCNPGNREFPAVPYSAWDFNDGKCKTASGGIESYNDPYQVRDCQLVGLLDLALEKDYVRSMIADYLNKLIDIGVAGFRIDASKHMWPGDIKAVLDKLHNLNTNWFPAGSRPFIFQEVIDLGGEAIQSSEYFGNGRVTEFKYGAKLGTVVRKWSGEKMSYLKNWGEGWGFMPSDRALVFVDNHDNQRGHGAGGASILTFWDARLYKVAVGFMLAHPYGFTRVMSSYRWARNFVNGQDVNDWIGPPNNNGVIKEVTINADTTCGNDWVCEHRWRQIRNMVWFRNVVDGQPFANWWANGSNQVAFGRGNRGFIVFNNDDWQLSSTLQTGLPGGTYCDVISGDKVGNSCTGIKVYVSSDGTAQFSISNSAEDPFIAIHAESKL

[2] = target: T1, Inactive α-amylase (from swine pancreas); assay: as above; assay type: biochemical; details: for sensitivity in the determination of the standard solution (in words): by addition of the agent, versus no addition; for Relative sensitivity (%) when sensitivity in case of no addition is taken as 100%: just after the preparation, 10 mg/dl calcium standard
Method: [table] In the test enzyme solutions of the reagents for the determination of calcium with the reagent formulations as described above in Example 1, glucosyl-α-cyclodextrin, maltosyl-α-cyclodextrin, glucosyl-β-cyclodextrin, or maltosyl-β-cyclodextrin was independently added as a cyclodextrin derivative at 0, 1.5, 3, 6, or 12 mM. To the test enzyme solutions containing 3 mM glucosyl-β-cyclodextrin was further added independently N-acetylcysteine or reduced glutathione at 2.5, 5, 10, or 20 mM, and the determination of calcium ions with a calcium standard solution was carried out as described below. According to the method as described below, the determination of the amount of calcium was carried out for test solutions just after the preparation with 10 mg/dl calcium standard solution as a sample, and the relative sensitivity (%) was determined under the respective reagent conditions when the sensitivity in the case of no addition of cyclodextrin derivatives was taken as 100%. B. Method for the Determination of the Amount of Calcium To 5.8 μl of a sample was added 180 μl of a test enzyme solution, and the mixture was pre-warmed for 5 minutes, to which 90 μl of a test substrate solution was further added to make the reaction start. […] The measuring apparatus used was HITACHI Automatic Analyzer model 7170. The measurement wavelength was 405 nm for the principal wavelength and 546 nm for the second wavelength. The measurement was carried out at 37° C. […] The test solutions thus prepared were used for the determination of the calcium standard solution in the same manner as described in Example 3.

[3] = target: T1, Inactive α-amylase (from swine pancreas); assay: Residual activity of α-amylase in test enzyme solutions after storage; assay type: biochemical; details: after storage at 35° C. for 7 days
Method: [table] In the test enzyme solutions of the reagents for the determination of calcium with the reagent formulations as described above in Example 1, glucosyl-α-cyclodextrin, maltosyl-α-cyclodextrin, glucosyl-β-cyclodextrin, or maltosyl-β-cyclodextrin was independently added as a cyclodextrin derivative at 12 mM. […] Instead of the cyclodextrin derivatives and the SH group containing compounds in the reagent formulations as described above in Example 1, glucose (100 mM), maltose (50 mM), maltotriose (30 mM), α-cyclodextrin (1.5 mM), β-cyclodextrin (1.5 mM), γ-cyclodextrin (1.5 mM), N-acetylcysteine (20 mM), or reduced glutathione (20 mM) was independently added to have the respective concentrations as shown in Table 3.

[4] = Visual observation of test solutions for deposition of crystals or white turbidity; assay type: physicochemical; design: key to turbidity (visual observation): +: turbidity found; −: no turbidity
Method: Among the reagents for the determination of calcium with the reagent formulations as described below, test enzyme solutions were prepared by the addition of glucosyl-α-cyclodextrin (G1αCD), maltosyl-α-cyclodextrin (G2αCD), glucosyl-p-cyclodextrin (G1βCD), or maltosyl-β-cyclodextrin(G2βCD) as a cyclodextrin derivative to have a concentration of 0, 1.5, 3, 6, or 12 mM. To the test enzyme solutions containing 3 mM glucosyl-β-cyclodextrin was further added independently N-acetylcysteine or reduced glutathione to have a concentration of 2.5, 5, 10, or 20 mM.
Both kinds of test solutions prepared by the above procedures were stored at 4° C. for 3 months. Visual observation of the test solutions was carried out just after the preparation and after the storage to examine whether there was found the deposition of crystals or the presence of white turbidity. The results are shown in table 1 for the visual observation just after the preparation and in Table 2 for the visual observation after the storage.
The test solutions were prepared in the same manner as described in Example 1, except that α-cyclodextrin (αCD) (1.5, 3, 6, or 12 mM), β-cyclodextrin (βCD) (1.5, 3, 6, or 12 mM), or γ-cyclodextrin (γCD) (1.5, 3, 6, or 12 mM) was independently added instead of the cyclodextrin derivatives and the SH group containing compounds in the above reagent formulations to have the respective concentrations as shown in Table 1. Both kinds of test solutions were stored at 4° C. for 3 months. Visual observation of the test solutions was carried out just after the preparation and after the storage to examine whether there was found the deposition of crystals or the presence of white turbidity. The results are shown in Table 1 for the visual observation just after the preparation and in Table 2 for the visual observation after the storage.

[5] = after storage at 4° C. for 3 months, agent added 1.5 mM
[6] = after storage at 4° C. for 3 months, agent added 3 mM
[7] = after storage at 4° C. for 3 months, agent added 6 mM
[8] = after storage at 4° C. for 3 months, agent added 12 mM
[9] = after the storage at 4° C. for 3 months, at 3 mM
[10] = just after the preparation, agent added 1.5 mM
[11] = just after the preparation, agent added 3 mM
[12] = just after the preparation, agent added 6 mM
[13] = just after the preparation, agent added 12 mM
[14] = just after the preparation, at 6 mM

Row | SMILES | turbidity (visual observation) [4, 5] | turbidity (visual observation) [4, 6] | turbidity (visual observation) [4, 7] | turbidity (visual observation) [4, 8] | turbidity (visual observation) [4, 10] | turbidity (visual observation) [4, 11] | turbidity (visual observation) [4, 12] | turbidity (visual observation) [4, 13] | Relative sensitivity (%) when sensitivity in case of no addition is taken as 100% ([2]; agent 1.5 mM) [%] | Relative sensitivity (%) when sensitivity in case of no addition is taken as 100% ([2]; agent 3 mM) [%] | Relative sensitivity (%) when sensitivity in case of no addition is taken as 100% ([2]; agent 6 mM) [%] | Relative sensitivity (%) when sensitivity in case of no addition is taken as 100% ([2]; agent 12 mM) [%] | Residual activity (%) ([3]; agent 12 mM) | further results
1 | OC[C@H]1O[C@H](O[C@H]2[C@H](O)[C@@H](O)C(O)O[C@@H]2CO)[C@H](O)[C@@H](O)[C@@H]1O (mixture of isomers) [maltose] |  |  |  |  |  |  |  |  |  |  |  |  |  | Relative sensitivity (%) when sensitivity in case of no addition is taken as 100% ([1]; agent 6.3 mM): 99.7%; Relative sensitivity (%) when sensitivity in case of no addition is taken as 100% ([1]; agent 12.5 mM): 89.3%; Relative sensitivity (%) when sensitivity in case of no addition is taken as 100% ([1]; agent 25 mM): 83.9%; Relative sensitivity (%) when sensitivity in case of no addition is taken as 100% ([1]; agent 50 mM): 70.1%; sensitivity in the determination of the standard solution (in words) [2]: remarkably decreased; remaining activity at 50000 µM ([3]; agent 50 mM): 73.5%
2 | OC[C@H]1O[C@@H]2O[C@H]3[C@H](O)[C@@H](O)[C@@H](O[C@H]4[C@H](O)[C@@H](O)[C@@H](O[C@H]5[C@H](O)[C@@H](O)[C@@H](O[C@H]6[C@H](O)[C@@H](O)[C@@H](O[C@H]7[C@H](O)[C@@H](O)[C@@H](O[C@H]8[C@H](O)[C@@H](O)[C@@H](O[C@H]9[C@H](O)[C@@H](O)[C@@H](O[C@H]1[C@H](O)[C@H]2O)O[C@@H]9CO)O[C@@H]8CO)O[C@@H]7CO)O[C@@H]6CO)O[C@@H]5CO)O[C@@H]4CO)O[C@@H]3CO [γCD, γ-cyclodextrin, reference compound] | − | − | + | + | − | − | + | + |  |  |  |  |  | Residual activity (%) ([3]; agent 1.5 mM): 74.6%; turbidity of test enzyme solution (in words) [4, 9]: became turbid; turbidity of test enzyme solution (in words) [4, 14]: had already become turbid
3 | OCC1OC(OC2C(CO)OC(OC3C(CO)OC(O)C(O)C3O)C(O)C2O)C(O)C(O)C1O (stereo not drawn) [maltotriose] |  |  |  |  |  |  |  |  |  |  |  |  |  | Relative sensitivity (%) when sensitivity in case of no addition is taken as 100% ([1]; agent 3.8 mM): 47.1%; Relative sensitivity (%) when sensitivity in case of no addition is taken as 100% ([1]; agent 7.5 mM): 24.3%; Relative sensitivity (%) when sensitivity in case of no addition is taken as 100% ([1]; agent 15 mM): 7.4%; Relative sensitivity (%) when sensitivity in case of no addition is taken as 100% ([1]; agent 30 mM): 4.6%; sensitivity in the determination of the standard solution (in words) [2]: remarkably decreased; Residual activity (%) ([3]; agent 30 mM): 77.3%
4 | OC[C@H]1O[C@@H]2O[C@H]3[C@H](O)[C@@H](O)[C@@H](O[C@H]4[C@H](O)[C@@H](O)[C@@H](O[C@H]5[C@H](O)[C@@H](O)[C@@H](O[C@H]6[C@H](O)[C@@H](O)[C@@H](O[C@H]7[C@H](O)[C@@H](O)[C@@H](O[C@H]1[C@H](O)[C@H]2O)O[C@@H]7CO)O[C@@H]6CO)O[C@@H]5CO)O[C@@H]4CO)O[C@@H]3CO [αCD, α-cyclodextrin, reference compound] | − | − | + | + | − | − | + | + |  |  |  |  |  | Residual activity (%) ([3]; agent 1.5 mM): 70.5%; turbidity of test enzyme solution (in words) [4, 9]: became turbid; turbidity of test enzyme solution (in words) [4, 14]: had already become turbid
5 | OCC1OC(OC2C(CO)OC(OCC3OC4OC5C(CO)OC(OC6C(CO)OC(OC7C(CO)OC(OC8C(CO)OC(OC9C(CO)OC(OC3C(O)C4O)C(O)C9O)C(O)C8O)C(O)C7O)C(O)C6O)C(O)C5O)C(O)C2O)C(O)C(O)C1O (stereo not drawn) [G2αCD, maltosyl-α-cyclodextrin] | − | − | − | − | − | − | − | − | 112.5 | 123.0 | 119.4 | 122.8 | 82.3 | 
6 | OCC1OC(OCC2OC3OC4C(CO)OC(OC5C(CO)OC(OC6C(CO)OC(OC7C(CO)OC(OC8C(CO)OC(OC2C(O)C3O)C(O)C8O)C(O)C7O)C(O)C6O)C(O)C5O)C(O)C4O)C(O)C(O)C1O (stereo not drawn) [G1αCD, glucosyl-α-cyclodextrin] | − | − | − | − | − | − | − | − | 112.8 | 120.2 | 122.3 | 118.9 | 80.4 | 
7 | CC(=O)N[C@@H](CS)C(=O)O [NAC, N-acetylcysteine] |  |  |  |  |  |  |  |  |  |  |  |  |  | remaining activity at 20000 µM ([3]; agent 20 mM): 71.2%
8 | N[C@@H](CCC(=O)N[C@@H](CS)C(=O)NCC(=O)O)C(=O)O [GSH, reduced glutathione] |  |  |  |  |  |  |  |  |  |  |  |  |  | Residual activity (%) ([3]; agent 20 mM): 75.4%
9 | OCC1OC(OC2C(CO)OC(OCC3OC4OC5C(CO)OC(OC6C(CO)OC(OC7C(CO)OC(OC8C(CO)OC(OC9C(CO)OC(OC%10C(CO)OC(OC3C(O)C4O)C(O)C%10O)C(O)C9O)C(O)C8O)C(O)C7O)C(O)C6O)C(O)C5O)C(O)C2O)C(O)C(O)C1O (stereo not drawn) [G2βCD, maltosyl-β-cyclodextrin] | − | − | − | − | − | − | − | − | 122.8 | 120.7 | 120.2 | 123.0 | 93.0 | 
